Assay results reported in US20250368678A1, “19-NOR-C3,3-DISUBSTITUTED C21-AZACYCLO-S[…] AND METHOD FOR USING SAME” (SHANDONG LUYE PHARMACEUTICAL CO., LTD., priority 2022, published 2025).

How the values were obtained:
[1] = In vitro liver microsomal stability assay, human; format: in vitro ADME; settings: for CLint scaled at 1 µM / T1/2 / microsomal CLint at 1 µM / half-life at 1 µM: Human liver microsomes; for Remaining amount % at 60 min: Human liver microsomes 0.5 mg/mL, NADPH; for microsomal CLint at 1 µM: read-out: CLint(mic)
Experimental: (§1) 1) Preparation of working solutions of test samples: The test samples were diluted with acetonitrile to 100 M.
(§2) 2) Preparation of a working solution of liver microsomes: liver microsomes were diluted with 100 mM phosphate-buffered saline to 0.56 mg/mL.
(§3) 3) Preparation of a working solution of reduced nicotinamide adenine dinucleotide (NADPH): A proper amount of NADPH was weighed out and diluted with phosphate-buffered saline to 20 mM, and an equal volume of a 60 mM MgCl2 solution was added.
(§4) 4) Preparation of a stop solution: Tolbutamide was diluted with acetonitrile to 20 ng/mL, serving as a stop solution containing an internal standard.
(§5) 1) Incubation anti-adsorption EP tubes were prepared and labeled with species, test/control sample, time points (0, 5, 10, 20, 30, 60 min, Blank60, and NCF60), etc.
(§6) 2) 2 L of test or control sample working solution, diluted with acetonitrile to 100 M, and 178 L of liver microsome working solution were added to each tube. For the Blank60 tube, 2 L of acetonitrile was added instead of a test sample. The tubes were pre-incubated in a 37° C. water bath for about 10 min, with each sample tested in triplicate.
(§7) 3) After the pre-incubation was complete, 20 L of NADPH working solution was added to each tube except for the 0 min and NCF60 tubes to start reactions, and 20 L of phosphate-buffered saline (containing 30 mM MgCl2) was added to the NCF60 tube. In the incubation system, the final concentrations of the test and control samples were 1 M, the final concentration of liver microsomes was 0.5 mg/mL, the final concentration of NADPH was 1 mM, and the final concentration of MgCl2 was 3 mM.
(§8) 4) For the 0 min sample, 600 L of stop solution was added before adding the NADPH working solution. After each sample was incubated for its respective time, 600 L of stop solution was added to stop the reaction.
(§9) 5) After the reaction was stopped, each sample was vortexed for 30 s and then centrifuged at 13,500 rpm for 10 min. 100 L of the supernatant was transferred to an EP tube, and 100 L Milli-Q water was added. The mixture was well mixed by vortexing and analyzed by LC-MS/MS.
(§10) 6) Testosterone and dextromethorphan were used as positive control samples under the same conditions to assess the stability and reliability of the system.
(§11) Parameters of the test samples, including their half-lives, intrinsic clearance rates in liver microsomes, and hepatic intrinsic clearance rates, were calculated based on the percentage of test sample remaining.

[2] = molecular target: T1, α1β2γ2 GABA receptors (α1β2γ2-CHO-TRex stable cell strain) (Homo sapiens, UniProt P14867+P47870); test: Whole-cell patch clamp, intrasynaptic functional activity (positive allosteric regulation of GABA-induced current); format: cell-based; settings: patch clamp -60 mV, GABA at EC10-20, α1β2γ2-CHO-TRex cells
T1 construct: expressed in transfected cells
T1 sequence (P14867 28-456): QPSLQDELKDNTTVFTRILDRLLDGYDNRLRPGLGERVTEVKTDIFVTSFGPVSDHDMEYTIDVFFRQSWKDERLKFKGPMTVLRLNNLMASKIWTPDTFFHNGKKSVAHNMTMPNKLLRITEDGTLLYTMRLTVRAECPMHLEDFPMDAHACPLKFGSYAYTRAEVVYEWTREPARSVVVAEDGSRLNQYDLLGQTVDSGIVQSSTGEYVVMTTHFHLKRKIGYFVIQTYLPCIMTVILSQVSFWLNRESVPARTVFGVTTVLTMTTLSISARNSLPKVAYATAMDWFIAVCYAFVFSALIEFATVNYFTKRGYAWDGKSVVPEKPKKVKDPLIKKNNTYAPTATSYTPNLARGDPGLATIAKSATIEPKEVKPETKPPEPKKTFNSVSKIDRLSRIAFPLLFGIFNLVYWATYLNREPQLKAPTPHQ
T1 sequence (P47870 25-512 limits assumed): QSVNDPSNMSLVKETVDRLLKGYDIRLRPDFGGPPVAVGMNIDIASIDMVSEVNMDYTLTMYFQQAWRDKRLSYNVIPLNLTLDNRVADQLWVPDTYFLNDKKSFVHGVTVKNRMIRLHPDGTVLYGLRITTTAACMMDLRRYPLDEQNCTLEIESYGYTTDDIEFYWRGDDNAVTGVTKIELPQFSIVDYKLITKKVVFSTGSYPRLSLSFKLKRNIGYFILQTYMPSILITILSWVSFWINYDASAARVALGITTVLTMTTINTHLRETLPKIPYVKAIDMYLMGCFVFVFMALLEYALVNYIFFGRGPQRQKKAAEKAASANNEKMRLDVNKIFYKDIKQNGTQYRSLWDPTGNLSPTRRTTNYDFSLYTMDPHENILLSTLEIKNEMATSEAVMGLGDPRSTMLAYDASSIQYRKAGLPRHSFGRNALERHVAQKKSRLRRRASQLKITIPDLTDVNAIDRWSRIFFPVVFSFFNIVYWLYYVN
T1 sequence (P18507 40-475 partner): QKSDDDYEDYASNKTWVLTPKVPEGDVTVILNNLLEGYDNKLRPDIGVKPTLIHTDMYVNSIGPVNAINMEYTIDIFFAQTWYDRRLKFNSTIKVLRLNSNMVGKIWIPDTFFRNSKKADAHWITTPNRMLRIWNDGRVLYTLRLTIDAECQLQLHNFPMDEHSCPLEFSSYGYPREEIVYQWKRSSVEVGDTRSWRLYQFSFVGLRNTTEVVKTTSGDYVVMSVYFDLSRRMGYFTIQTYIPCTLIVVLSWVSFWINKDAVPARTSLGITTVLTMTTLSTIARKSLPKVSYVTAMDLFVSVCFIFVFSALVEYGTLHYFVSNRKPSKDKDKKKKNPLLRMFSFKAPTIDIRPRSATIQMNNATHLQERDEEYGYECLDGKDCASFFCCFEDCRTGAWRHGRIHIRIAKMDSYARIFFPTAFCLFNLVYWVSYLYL
Experimental: (§12) The α4β3δ-HEK-FlpIn-TRex stable cell strain was cultured in DMEM+10% FBS complete culture medium, with the selective antibiotics being 10 μg/mL Blasticidin, 100 µg/mL Zeocin, 100 µg/mL Hygromycin, and 0.2 μg/mL Puromycin. The α1β2γ2-CHO-TRex stable cell strain was cultured in DMEM/F12+10% FBS complete culture medium, with the selective antibiotics being 10 μg/mL Blasticidin, 100 μg/mL Zeocin, 300 μg/mL Hygromycin, and […] Puromycin.
(§13) The day before the patch clamp experiment, cells were seeded onto 12 mm polylysine-coated coverslips and then cultured in 35 mm culture dishes, and tetracycline ([…]) was added to induce the expression of GABA receptors. The extracellular fluid had the following composition (in mM): 140 NaCl, 3 KCl, 1.5 MgCl2, 2 CaCl2, 10 HEPES, and 10 Glucose. After thorough mixing, NaOH was added to adjust the pH to 7.4, and sucrose was added to adjust the osmotic pressure to 300-320 mOsm. The fluid was stored at 4° C. The electrode internal solution had the following composition (in mM): 145 KCl, 1 MgCl2, 5 EGTA, 10 HEPES, and 5 MgATP. After thorough mixing, KOH was added to adjust the pH to 7.3, and sucrose was added to adjust the osmotic pressure to 290-300 mOsm. The solution was filtered through a […] before use.
(§14) Whole-cell patch clamp recording was mainly employed in this experiment. The membrane potential was clamped at −60 mV, and receptors were activated using GABA at an EC10-20 concentration ([…]). The test compounds were dissolved in 0.1% DMSO, and perfusion was performed for 30 s prior to GABA stimulation. Finally, the positive allosteric regulating effects of the test compounds on α1β2γ2 or α4β3δ were determined.
(§15) The experimental result for each concentration was expressed as a fold increase in the GABA-induced current caused by the compound. […] At least 5 concentrations are tested to obtain a complete EC50 curve and EC50 values. All experiments were repeated on no less than 3 cells, and data processing was completed using GraphPad prism software. The dose-response curves were fitted using the Hill equation, and the half-maximal activating concentration EC50 and Emax were finally obtained.

[3] = molecular target: T2, α4β3δ GABA receptors (α4β3δ-HEK-FlpIn-TRex stable cell strain) (Homo sapiens, UniProt P28472+P48169); test: Whole-cell patch clamp, extrasynaptic functional activity (positive allosteric regulation of GABA-induced current); format: cell-based; settings: patch clamp -60 mV, GABA at EC10-20, α4β3δ-HEK-FlpIn-TRex cells
T2 construct: expressed in transfected cells
T2 sequence (P48169 36-554): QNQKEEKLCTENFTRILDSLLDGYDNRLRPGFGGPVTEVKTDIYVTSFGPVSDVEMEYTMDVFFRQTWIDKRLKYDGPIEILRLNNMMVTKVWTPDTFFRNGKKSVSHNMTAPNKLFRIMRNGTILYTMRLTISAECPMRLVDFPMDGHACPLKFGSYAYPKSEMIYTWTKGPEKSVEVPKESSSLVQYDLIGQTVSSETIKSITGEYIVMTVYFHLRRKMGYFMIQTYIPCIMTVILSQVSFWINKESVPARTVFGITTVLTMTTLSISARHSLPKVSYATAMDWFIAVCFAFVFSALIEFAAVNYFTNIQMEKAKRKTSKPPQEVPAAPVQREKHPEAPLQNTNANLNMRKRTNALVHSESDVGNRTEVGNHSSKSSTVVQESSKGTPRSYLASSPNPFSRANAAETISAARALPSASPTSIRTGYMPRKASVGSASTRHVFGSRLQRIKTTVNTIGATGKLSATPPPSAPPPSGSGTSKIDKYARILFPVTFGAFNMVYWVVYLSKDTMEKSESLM
T2 sequence (P28472 26-473): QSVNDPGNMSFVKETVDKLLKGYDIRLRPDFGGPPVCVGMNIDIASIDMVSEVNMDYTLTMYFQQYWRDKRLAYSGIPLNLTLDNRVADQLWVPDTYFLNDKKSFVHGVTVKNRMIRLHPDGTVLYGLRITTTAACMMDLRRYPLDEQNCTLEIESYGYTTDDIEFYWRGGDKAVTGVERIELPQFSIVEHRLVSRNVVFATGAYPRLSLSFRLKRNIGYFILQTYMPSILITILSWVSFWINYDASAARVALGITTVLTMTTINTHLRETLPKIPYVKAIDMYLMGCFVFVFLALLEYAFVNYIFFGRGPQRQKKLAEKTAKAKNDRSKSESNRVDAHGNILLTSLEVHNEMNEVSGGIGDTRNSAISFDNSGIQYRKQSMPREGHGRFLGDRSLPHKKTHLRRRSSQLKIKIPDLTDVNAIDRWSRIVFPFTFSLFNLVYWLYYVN
T2 sequence (O14764 25-452 partner): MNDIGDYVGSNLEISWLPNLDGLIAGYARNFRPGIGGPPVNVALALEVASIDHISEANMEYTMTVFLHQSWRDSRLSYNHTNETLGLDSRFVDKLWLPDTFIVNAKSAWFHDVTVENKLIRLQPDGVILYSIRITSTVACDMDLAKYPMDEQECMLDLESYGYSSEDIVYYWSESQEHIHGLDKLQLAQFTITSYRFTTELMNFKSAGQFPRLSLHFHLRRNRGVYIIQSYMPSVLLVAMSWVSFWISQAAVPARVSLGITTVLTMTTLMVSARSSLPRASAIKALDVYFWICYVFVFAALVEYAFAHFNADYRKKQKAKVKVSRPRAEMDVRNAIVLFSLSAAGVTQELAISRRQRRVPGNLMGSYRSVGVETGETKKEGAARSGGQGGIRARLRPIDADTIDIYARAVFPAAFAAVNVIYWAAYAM
Experimental: as §12, §13, §14, §15

[4] = In vitro liver microsomal stability assay, rat; format: in vitro ADME; settings: for CLint scaled at 1 µM / T1/2 / microsomal CLint at 1 µM / half-life at 1 µM: Rat liver microsomes; for Remaining amount % at 60 min: Rat liver microsomes 0.5 mg/mL, NADPH; for microsomal CLint at 1 µM: read-out: CLint(mic)
Experimental: as §1, §2, §3, §4, §5, §6, §7, §8, §9, §10, §11

| SMILES | CLint scaled at 1 µM [1] [mL/min/kg] | T1/2 [1] [min] | Remaining amount % at 60 min [1] [%] | microsomal CLint at 1 µM [1] [µL/min/mg] | Emax [2] [%] | Emax [3] [%] | CLint scaled at 1 µM [4] [mL/min/kg] | T1/2 [4] [min] | Remaining amount % at 60 min [4] [%] | microsomal CLint at 1 µM [4] [µL/min/mg] | half-life at 1 µM [1] [min] | EC50 [2] [nM] | EC50 [3] [nM] | half-life at 1 µM [4] [min] |
| --- | --- | --- | --- | --- | --- | --- | --- | --- | --- | --- | --- | --- | --- | --- |
| C[C@@]1(O)CC[C@H]2[C@H](CC[C@@H]3[C@@H]2CC[C@]2(C)[C@@H](C(=O)Cn4cnn(-c5cccc(C(N)=O)c5)c4=O)CC[C@@H]32)C1 [Compound 19] | 26 | 28.5 | 42.2 | 29 | 764 | 386 | 141 | 17.6 | 9.5 | 79 |  |  |  |  |
| C[C@@]1(O)CC[C@H]2[C@H](CC[C@@H]3[C@@H]2CC[C@]2(C)[C@@H](C(=O)Cn4cnn(-c5cccc(F)n5)c4=O)CC[C@@H]32)C1 [Compound 20] | 28 |  | 52.3 | 20 | 724 | 966 | 320 |  | 8.40 | 178 | 70.7 | 368 | 360 | 7.8 |
| C[C@@]1(O)CC[C@H]2[C@H](CC[C@@H]3[C@@H]2CC[C@]2(C)[C@@H](C(=O)Cn4cnn(-c5ccnc(F)c5)c4=O)CC[C@@H]32)C1 [Compound 21] | 23 |  | 47.9 | 26 |  |  | 69 |  | 31.9 | 38 | 53.3 | 153 | 116 | 36.3 |
| C[C@@]1(O)CC[C@H]2[C@H](CC[C@@H]3[C@@H]2CC[C@]2(C)[C@@H](C(=O)Cn4cnn(-c5cccc(N)c5)c4=O)CC[C@@H]32)C1 [Compound 22] | 320 |  | 8.6 | 178 | 786 |  | 146 |  | 8.9 | 81 | 7.8 | 349 | 213 | 17.1 |
| C[C@@]1(O)CC[C@H]2[C@H](CC[C@@H]3[C@@H]2CC[C@]2(C)[C@@H](C(=O)Cn4cnn(-c5cncc(F)c5)c4=O)CC[C@@H]32)C1 [Compound 23] | 21 |  | 53.4 | 23 | 618 | 601 | 72 |  | 31.7 | 40 | 60.3 | 145 | 150 | 34.7 |
| C[C@@]1(O)CC[C@H]2[C@H](CC[C@@H]3[C@@H]2CC[C@]2(C)[C@@H](C(=O)Cn4cnn(-c5cc(F)ccc5F)c4=O)CC[C@@H]32)C1 [Compound 24] | 17 |  | 56.1 | 19 | 347 | 743 | 118 |  | 14.7 | 66 | 71.4 | 340 | 79 | 21.1 |
| C[C@@]1(O)CC[C@H]2[C@H](CC[C@@H]3[C@@H]2CC[C@]2(C)[C@@H](C(=O)Cn4cnn(-c5ccc(F)cc5F)c4=O)CC[C@@H]32)C1 [Compound 25] | 25 |  | 42 | 28 | 692 | 542 | 104 |  | 16.2 | 58 | 49.5 | 784 | 89 | 24.1 |
| C[C@@]1(O)CC[C@H]2[C@H](CC[C@@H]3[C@@H]2CC[C@]2(C)[C@@H](C(=O)Cn4cnn(-c5cc(Cl)ccn5)c4=O)CC[C@@H]32)C1 [Compound 26] | 18 | 68.6 | 53.7 | 20 | 624 | 589 | 120 | 20.8 | 12.7 | 67 |  |  |  |  |
| C[C@@]1(O)CC[C@H]2[C@H](CC[C@@H]3[C@@H]2CC[C@]2(C)[C@@H](C(=O)Cn4cnn(-c5cccc(F)c5F)c4=O)CC[C@@H]32)C1 [Compound 27] | 14 |  | 64.13 | 15 | 445 | 526 | 122 |  | 14.60 | 68 | 91.2 | 126 | 42 | 20.4 |
| C[C@@]1(O)CC[C@H]2[C@H](CC[C@@H]3[C@@H]2CC[C@]2(C)[C@@H](C(=O)Cn4cnn(-c5cc(F)cc(F)c5)c4=O)CC[C@@H]32)C1 [Compound 28] | 21 |  | 61.6 | 24 |  | 441 | 43 |  | 48.8 | 24 | 58.2 | 154 | 35 | 57.8 |
| C[C@@]1(O)CC[C@H]2[C@H](CC[C@@H]3[C@@H]2CC[C@]2(C)[C@@H](C(=O)Cn4cnn(C5CCCC5)c4=O)CC[C@@H]32)C1 [Compound 29] | 60 |  | 45.8 | 67 | 691 | 830 | 64 |  | 36.8 | 36 | 20.7 | 192 | 203 | 38.7 |
| C[C@@]1(O)CC[C@H]2[C@H](CC[C@@H]3[C@@H]2CC[C@]2(C)[C@@H](C(=O)Cn4cnn(C5CCCCC5)c4=O)CC[C@@H]32)C1 [Compound 30] | 91 |  | 9.5 | 79 | 873 | 685 | 329 |  | 7.4 | 183 | 17.5 | 585 | 237 | 7.6 |
